Assay results as given in patent US5387419A, “System for controlled release of antiarrhythmic agents” (The University of Michigan, priority 1993, dated 1995).

Columns and labels:
[1] = oral; cited from earlier work
[2] = system: Ventricular tachycardia (VT) induced by rapid ventricular pacing; assay: In vivo ventricular pacing study: conversion of ventricular tachycardia induced by rapid ventricular pacing; set-up: species or system dog (male mongrel dogs); conditions: for Peak % Increase in VT Threshold / Conversion: mean ± standard error; for Peak % Increase in VT Threshold: same patches: lidocaine/Tecoflex, procainamide/Thyomer, amiodarone/Thyomer with polyethyleneglycol, NiCl2/Thyomer; for Effectiveness in converting ventricular tachycardia: in words, controlled release dosage form, epicardial; for Conversion: patches: lidocaine 28% in Tecoflex (N 16), procainamide 30% in Thyomer (7), amiodarone 30% in Thyomer with 10% polyethyleneglycol 200 (3), NiCl2 50% in Thyomer (4)
Description: Ventricular tachycardia was induced and maintained by rapid ventricular pacing in an open-chest dog model using male mongrel dogs (10-15 kg). Three sets of bipolar epicardial electrodes were placed at 2 cm distances from the left ventricular apex toward the base of the heart. A Grass Model 8 stimulator (Grass Instruments, delivered continuous electrical stimulation as 2-msec square wave impulses with a 50-msec cycle length via a stimulus isolation unit (Bloom Associates, Reading, Pa.). The stimulus isolation unit also repeatedly monitored the pacing current thresholds. After induction of ventricular tachycardia, a controlled release dosage form of the present invention in the shape of a patch of the drug-loaded polymeric matrix material was placed adjacent to the stimulating electrode. The time required to convert the ventricular tachycardia to sinus rhythm was measured, as well as the time course of the quantitative change for sustaining the induction of ventricular tachycardia. The effects of controlled release were monitored for up to 4 hours after conversion to normal sinus rhythm.
All other dosage forms were fabricated by dissolving the therapeutic agent in dimethylacetamide at a concentration of 100 mg/ml therapeutic agent. This solution was further dissolved in a 10% solution of a Thyomer polyurethane and solvent cast into a 0.2 mm films. […] Controls comprised patches of each polymeric matrix material.

[3] = system: Ischemia-induced ventricular tachycardia; assay: In vivo acute ischemia-induced ventricular tachycardia study; set-up: species or system dog; conditions: for VT (per/minute): number of VT episodes per minute following epicardial placement: average for N dogs, patches (dose mg/kg/2hr): lidocaine 28% Tecoflex (0.23, N 5), propranolol 30% MPU-5 (0.14, 6), D-sotalol 30% MPU-5 (0.20, 9), verapamil 30% MPU-5 (0.30, 11); for Effectiveness against ischemia-induced ventricular tachycardia: in words, epicardial controlled release
Method: Controlled release dosage forms of the present invention have been successful in preventing ischemia-induced ventricular tachycardia in a canine model. Ventricular occlusions of the left anterior descending coronary artery of a dog were produced by exposing and isolating the artery in a dog under anesthesia. A snare with a sliding closure was placed around the artery. Ventricular tachycardia was produced by closing the snare for 10 minutes to shut off the blood supply to left ventricle. The snare was opened for an hour, and then the snare was closed for 10 minutes. This procedure can be repeated up six times and simulates a heart attack. Ventricular tachycardia (VT) was defined as the occurrence of 3 or more sequential ventricular premature beats. The efficacy of various controlled release dosage forms of the present invention were documented by continuous recording of the electrophysiologic data on a Hewlett Packard Physiologic Records, and an 8-channel analogue tape deck (Hewlett Packard, Philadelphia, Pa.).
The data is expressed as the average for the number N of dogs per group. Episodes of VT were paced at one per minutes.

normal cardiac function = assay: Other studies: effects of transmyocardial lidocaine on normal cardiac function; format: in vivo; conditions: lidocaine administered by transmyocardial route

## CCCCc1oc2ccccc2c1C(=O)c1cc(I)c(OCCN(CC)CC)c(I)c1 [Amiodarone, amiodarone]
[1]
  Severe side effects, share of patients: over 70%
[2]
  Peak % Increase in VT Threshold: 36.1 ± 12.7%

## CC(C)NCC(O)COc1cccc2ccccc12 (stereo not shown) [Propranolol, propranolol]
[3]
  VT (per/minute): number of VT episodes per minute following epicardial placement: 1.22 ± .12 per/minute

## COc1ccc(CCN(C)CCCC(C#N)(c2ccc(OC)c(OC)c2)C(C)C)cc1OC (stereo not shown) [Verapamil, verapamil]
[3]
  VT (per/minute): number of VT episodes per minute following epicardial placement: 0.10 ± .03 per/minute
  Effectiveness against ischemia-induced ventricular tachycardia: the most effective for arrhythmias due to acute myocardial ischemia

## CC(C)NC[C@@H](O)c1ccc(NS(C)(=O)=O)cc1 [D-Sotalol, d-sotalol]
[3]
  VT (per/minute): number of VT episodes per minute following epicardial placement: .046 ± .11 per/minute
  Effectiveness against ischemia-induced ventricular tachycardia: the most effective for arrhythmias due to acute myocardial ischemia

## CCN(CC)CC(=O)Nc1c(C)cccc1C [Lidocaine, lidocaine]
[3]
  VT (per/minute): number of VT episodes per minute following epicardial placement: 0.6 ± 0.2 per/minute
[2]
  Peak % Increase in VT Threshold: 367.7 ± 183.1%
Normal cardiac function
  Other effects on normal cardiac function: no other significant effects on normal cardiac function

## CCN(CC)CCNC(=O)c1ccc(N)cc1 [Procainamide, procainamide]
[2]
  Effectiveness in converting ventricular tachycardia: effective in converting ventricular tachycardia
  Conversion: 4.05 ± 3.15 min
  Peak % Increase in VT Threshold: 206.7 ± 172.6%

## [Cl][Ni][Cl] [NiCl2, nickel chloride]
[2]
  Effectiveness in converting ventricular tachycardia: effective to convert tachycardia to normal sinus rhythm
  Conversion: 2.08 ± 1.71 min
  Peak % Increase in VT Threshold: 122.6 ± 101.3%
